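Protocol summary: plate cells (96-well), add compound at 5 concentrations, incubate 48 h, interpolate endpoints linearly. GI50 marks 50% less growth.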 Activity calls are given as the source filed them. Rule as the data show it: active = GI50 up to about 1.1 µM and inactive = higher.
How the values were obtained:
Experiment in all cases: inhibition of tumour cell growth, NCI panel, 48 h
OVCAR-8 = system: OVCAR-8
UACC-62 = system: UACC-62
SN12C = system: SN12C
RXF 393 = system: RXF 393
MOLT-4 = system: MOLT-4
SF-268 = system: SF-268
Hs-578T = system: Hs-578T
K562 = system: K562
NCI-H23 = system: NCI-H23
MDA-N = system: MDA-N
EKVX = system: EKVX
KM12 = system: KM12
M14 = system: M14
XF498 = system: XF498
NCI-H460 = system: NCI-H460
HT-29 = system: HT-29
A498 = system: A498
SW-620 = system: SW-620
MDA-MB-231 = system: MDA-MB-231
NCI/ADR-RES = system: NCI/ADR-RES
LOX IMVI = system: LOX IMVI
MCF7 = system: MCF7
786-0 = system: 786-0
HL-60 = system: HL-60
OVCAR-3 = system: OVCAR-3
CAKI-1 = system: CAKI-1
MDA-MB-435 = system: MDA-MB-435
Malme-3M = system: Malme-3M
M19-MEL = system: M19-MEL
HCC 2998 = system: HCC 2998
SNB-78 = system: SNB-78
SR = system: SR
U-251 = system: U-251
HOP-18 = system: HOP-18
DU-145 = system: DU-145
SK-MEL-2 = system: SK-MEL-2
SF-295 = system: SF-295
DLD-1 = system: DLD-1
OVCAR-5 = system: OVCAR-5
NCI-H226 = system: NCI-H226
DMS-273 = system: DMS-273
PC-3 = system: PC-3
UACC-257 = system: UACC-257
SK-MEL-5 = system: SK-MEL-5
NCI-H522 = system: NCI-H522
SK-MEL-28 = system: SK-MEL-28
DMS-114 = system: DMS-114
RXF 631 = system: RXF 631
SNB-75 = system: SNB-75
ACHN = system: ACHN
UO-31 = system: UO-31
COLO 205 = system: COLO 205
CCRF-CEM = system: CCRF-CEM
HOP-62 = system: HOP-62
LXFL 529 = system: LXFL 529
HCT-116 = system: HCT-116
SF-539 = system: SF-539
SNB-19 = system: SNB-19
HOP-92 = system: HOP-92
RPMI-8226 = system: RPMI-8226
HCT-15 = system: HCT-15
BT-549 = system: BT-549
IGROV-1 = system: IGROV-1
A549 = system: A549
TK-10 = system: TK-10
SK-OV-3 = system: SK-OV-3
OVCAR-4 = system: OVCAR-4
KM-20L2 = system: KM-20L2

SMILES: Nc1ccc(C(=O)Nc2ccccc2N)cc1 [DINALINE]
- GI50 (OVCAR-8): 8.99 µM (inactive)
- GI50 (UACC-62): 16.1 µM (inactive)
- GI50 (SN12C): 60 µM (inactive)
- GI50 (RXF 393): 38.2 µM (inactive)
- GI50 (MOLT-4): 11.8 µM (inactive)
- GI50 (SF-268): 31.1 µM (inactive)
- GI50 (Hs-578T): 22.3 µM (inactive)
- GI50 (K562): 14.1 µM (inactive)
- GI50 (NCI-H23): 29.1 µM (inactive)
- GI50 (MDA-N): 32.1 µM (inactive)
- GI50 (EKVX): 66.2 µM (inactive)
- GI50 (KM12): 44.5 µM (inactive)
- GI50 (M14): 65.2 µM (inactive)
- GI50 (XF498): > 100 µM (inactive)
- GI50 (NCI-H460): 18.5 µM (inactive)
- GI50 (HT-29): 25.9 µM (inactive)
- GI50 (A498): 27.5 µM (inactive)
- GI50 (SW-620): 19.2 µM (inactive)
- GI50 (MDA-MB-231): 30.3 µM (inactive)
- GI50 (NCI/ADR-RES): 3.21 µM (inactive)
- GI50 (LOX IMVI): 21 µM (inactive)
- GI50 (MCF7): 20.9 µM (inactive)
- GI50 (786-0): > 66.4 µM (inactive)
- GI50 (HL-60): 3.37 µM (inactive)
- GI50 (OVCAR-3): 29.1 µM (inactive)
- GI50 (CAKI-1): 42.8 µM (inactive)
- GI50 (MDA-MB-435): 20.4 µM (inactive)
- GI50 (Malme-3M): 5.92 µM (inactive)
- GI50 (M19-MEL): 25.7 µM (inactive)
- GI50 (HCC 2998): 17.5 µM (inactive)
- GI50 (SNB-78): > 100 µM (inactive)
- GI50 (SR): 16.3 µM (inactive)
- GI50 (U-251): 17.7 µM (inactive)
- GI50 (HOP-18): 36.7 µM (inactive)
- GI50 (DU-145): 41.7 µM (inactive)
- GI50 (SK-MEL-2): 23.3 µM (inactive)
- GI50 (SF-295): 26.1 µM (inactive)
- GI50 (DLD-1): 44.3 µM (inactive)
- GI50 (OVCAR-5): 8.15 µM (inactive)
- GI50 (NCI-H226): > 78.5 µM (inactive)
- GI50 (DMS-273): 59.7 µM (inactive)
- GI50 (PC-3): 31.5 µM (inactive)
- GI50 (UACC-257): 17.7 µM (inactive)
- GI50 (SK-MEL-5): 16.3 µM (inactive)
- GI50 (NCI-H522): 11.1 µM (inactive)
- GI50 (SK-MEL-28): 24.5 µM (inactive)
- GI50 (DMS-114): 34.5 µM (inactive)
- GI50 (RXF 631): 37.4 µM (inactive)
- GI50 (SNB-75): > 36.3 µM (inactive)
- GI50 (ACHN): 31.7 µM (inactive)
- GI50 (UO-31): 42.6 µM (inactive)
- GI50 (COLO 205): 17.6 µM (inactive)
- GI50 (CCRF-CEM): 11.4 µM (inactive)
- GI50 (HOP-62): 18.7 µM (inactive)
- GI50 (LXFL 529): 22.5 µM (inactive)
- GI50 (HCT-116): 14.2 µM (inactive)
- GI50 (SF-539): 30.4 µM (inactive)
- GI50 (SNB-19): > 100 µM (inactive)
- GI50 (HOP-92): 37.9 µM (inactive)
- GI50 (RPMI-8226): 5.68 µM (inactive)
- GI50 (HCT-15): 54 µM
- GI50 (BT-549): 67.6 µM (inactive)
- GI50 (IGROV-1): 31.1 µM (inactive)
- GI50 (A549): 38.6 µM (inactive)
- GI50 (TK-10): 6.32 µM (inactive)
- GI50 (SK-OV-3): > 100 µM (inactive)
- GI50 (OVCAR-4): 20.2 µM (inactive)

SMILES: CNC(=O)OCc1c2ccncc2c(C)c2c1[nH]c1ccc(OC)cc12
- GI50 (OVCAR-8): 0.209 µM (active)
- GI50 (UACC-62): 0.16 µM (active)
- GI50 (SN12C): 0.678 µM (active)
- GI50 (MOLT-4): 0.0404 µM (active)
- GI50 (SF-268): 0.161 µM (active)
- GI50 (K562): 0.322 µM (active)
- GI50 (NCI-H23): 0.115 µM (active)
- GI50 (EKVX): 2.21 µM (inactive)
- GI50 (KM12): 0.573 µM (active)
- GI50 (M14): 0.57 µM (active)
- GI50 (XF498): 1.03 µM (active)
- GI50 (NCI-H460): 0.19 µM (active)
- GI50 (HT-29): 0.33 µM (active)
- GI50 (A498): 0.176 µM (active)
- GI50 (SW-620): 0.164 µM (active)
- GI50 (LOX IMVI): 0.256 µM (active)
- GI50 (786-0): 0.156 µM (active)
- GI50 (HL-60): 0.204 µM (active)
- GI50 (OVCAR-3): 0.311 µM (active)
- GI50 (CAKI-1): 0.968 µM (active)
- GI50 (Malme-3M): 0.353 µM (active)
- GI50 (M19-MEL): 0.344 µM (active)
- GI50 (HCC 2998): 0.29 µM (active)
- GI50 (SNB-78): 0.119 µM (active)
- GI50 (U-251): 0.182 µM (active)
- GI50 (HOP-18): 0.254 µM (active)
- GI50 (SK-MEL-2): 0.181 µM (active)
- GI50 (SF-295): 0.352 µM (active)
- GI50 (KM-20L2): 0.227 µM (active)
- GI50 (OVCAR-5): 0.247 µM (active)
- GI50 (NCI-H226): 0.179 µM (active)
- GI50 (DMS-273): 0.379 µM (active)
- GI50 (NCI-H522): 0.0805 µM (active)
- GI50 (SK-MEL-28): 0.605 µM (active)
- GI50 (DMS-114): 0.226 µM (active)
- GI50 (RXF 631): 0.675 µM (active)
- GI50 (ACHN): 0.193 µM (active)
- GI50 (UO-31): 0.148 µM (active)
- GI50 (COLO 205): 0.536 µM (active)
- GI50 (CCRF-CEM): 0.176 µM (active)
- GI50 (HOP-62): 0.156 µM (active)
- GI50 (LXFL 529): 0.115 µM (active)
- GI50 (HCT-116): 0.156 µM (active)
- GI50 (SF-539): 0.154 µM (active)
- GI50 (SNB-19): 0.267 µM (active)
- GI50 (HOP-92): 0.187 µM (active)
- GI50 (RPMI-8226): 0.183 µM (active)
- GI50 (HCT-15): 0.495 µM
- GI50 (IGROV-1): 0.284 µM (active)
- GI50 (A549): 0.39 µM (active)
- GI50 (TK-10): 0.953 µM (active)
- GI50 (SK-OV-3): 0.212 µM (active)
- GI50 (OVCAR-4): 0.256 µM (active)

SMILES: Cc1cc(N(CCC#N)CCC#N)ccc1/N=N/c1ccc(S(N)(=O)=O)cc1
- GI50 (OVCAR-8): > 100 µM (inactive)
- GI50 (UACC-62): > 100 µM (inactive)
- GI50 (SN12C): > 100 µM (inactive)
- GI50 (RXF 393): > 100 µM (inactive)
- GI50 (MOLT-4): > 100 µM (inactive)
- GI50 (SF-268): > 100 µM (inactive)
- GI50 (K562): > 100 µM (inactive)
- GI50 (NCI-H23): > 100 µM (inactive)
- GI50 (EKVX): > 100 µM (inactive)
- GI50 (KM12): > 100 µM (inactive)
- GI50 (M14): > 100 µM (inactive)
- GI50 (XF498): 0.0413 µM (active)
- GI50 (HT-29): > 100 µM (inactive)
- GI50 (A498): > 100 µM (inactive)
- GI50 (SW-620): > 100 µM (inactive)
- GI50 (LOX IMVI): > 100 µM (inactive)
- GI50 (786-0): > 100 µM (inactive)
- GI50 (HL-60): > 100 µM (inactive)
- GI50 (OVCAR-3): > 100 µM (inactive)
- GI50 (CAKI-1): 28.4 µM (inactive)
- GI50 (Malme-3M): > 100 µM (inactive)
- GI50 (HCC 2998): > 100 µM (inactive)
- GI50 (SNB-78): > 100 µM (inactive)
- GI50 (U-251): > 100 µM (inactive)
- GI50 (HOP-18): 51.1 µM (inactive)
- GI50 (SK-MEL-2): > 100 µM (inactive)
- GI50 (SF-295): > 100 µM (inactive)
- GI50 (DLD-1): > 100 µM (inactive)
- GI50 (OVCAR-5): > 100 µM (inactive)
- GI50 (NCI-H226): > 100 µM (inactive)
- GI50 (DMS-273): > 100 µM (inactive)
- GI50 (UACC-257): > 100 µM (inactive)
- GI50 (SK-MEL-5): > 100 µM (inactive)
- GI50 (NCI-H522): > 100 µM (inactive)
- GI50 (SK-MEL-28): > 100 µM (inactive)
- GI50 (DMS-114): > 100 µM (inactive)
- GI50 (RXF 631): > 100 µM (inactive)
- GI50 (SNB-75): > 100 µM (inactive)
- GI50 (ACHN): > 100 µM (inactive)
- GI50 (UO-31): 85.5 µM (inactive)
- GI50 (COLO 205): > 100 µM (inactive)
- GI50 (CCRF-CEM): > 100 µM (inactive)
- GI50 (HOP-62): > 100 µM (inactive)
- GI50 (LXFL 529): > 100 µM (inactive)
- GI50 (SF-539): > 100 µM (inactive)
- GI50 (SNB-19): > 100 µM (inactive)
- GI50 (RPMI-8226): > 100 µM (inactive)
- GI50 (HCT-15): > 100 µM
- GI50 (IGROV-1): > 100 µM (inactive)
- GI50 (A549): > 100 µM (inactive)
- GI50 (TK-10): > 100 µM (inactive)
- GI50 (SK-OV-3): > 100 µM (inactive)
- GI50 (OVCAR-4): > 100 µM (inactive)
